Experimental data from publication PMC11018795, “The regulatory relationship between NAMPT and PD-L1 in cancer and identification of a dual-targeting inhibitor” (EMBO Molecular Medicine, 2024).
“And” between values parts separate entries of the source, which are not always exact repeats. Identical values can stand only once.

Tests used:
[1] = test system: NAD+ content of LLC OE NAMPT/PD-L1 tumor tissue; experiment: NAD+ in tumor tissue, LLC OE NAMPT/PD-L1 mouse model; assay type: in vivo; settings: 20 mg/kg
[2] = test system: A549 cells; experiment: MTT assay 48 h, A549; assay type: cell-based, human
Method: (§1) Cells (5 × 10^3/well) were seeded into a 96-well plate and cultured at 37 °C in a 5% CO2 incubator. […] At the final time point, 10 μl MTT solution (5 mg/ml, Sigma, Burlington, MA, USA) was added to each well and incubated for an additional 4 h at 37 °C in a 5% CO2 incubator. Then,100 μl of DMSO was added to each well and mixed thoroughly. Optical density was measured at 492 nm using a microplate reader (Molecular Devices, San Jose, CA, USA).

[3] = test system: A2780 cells; experiment: MTT assay 48 h, A2780; assay type: cell-based, human
Method: as §1

[4] = test system: CT-26 cells; experiment: MTT assay 48 h, CT-26; assay type: cell-based, mouse
Method: as §1

[5] = test system: LLC cells; experiment: Clonogenic assay, LLC; assay type: cell-based, mouse; settings: 9 days
Method: Cells (3 × 10^2/well) were plated in a six-well plate and the culture medium was replaced every 2 days. After culturing for 7–10 d, the cells were fixed with 4% paraformaldehyde for 15 min, stained with 0.1% crystal violet for 30 min, and imaged and counted.

[6] = test system: LLC sh NAMPT cells co-cultured with T cells; experiment: T cell killing assay (colony formation), LLC sh NAMPT; assay type: cell-based; settings: Mus musculus, 72 h, 100 nM, three days, read-out: inhibition rate of colony formation number
Method: To acquire activated T cells, human peripheral blood mononuclear cells (PBMC; LTS1077, Yanjin Biological) were cultured in CTSTM AIIM VTM SFM (A3021002; Gibco) with ImmunoCult Human CD3/CD28/CD2 T-cell activator (25 μL/mL; […] Technologies, Cat#10970) for 48 h according to the manufacturer's protocol. The experiments were performed using mouse anti-CD3 antibody (1 μg/mL; Thermo Scientific, 16-0032-82) and anti-CD28 antibody(5 μg/mL; Thermo Scientific, 16-0281-82). […] Different proportions of cancer cells and activated T cells were utilized according to the purpose of each experiment. The T-cell proliferation assay was 1:3; the T-cell killing assay was 1:10; T cells and cell debris were removed by PBS washing, and the living cancer cells were then quantified by a spectrometer at OD (570 nm) followed by crystal violet staining. page 28: Fig 8: Effects of LZFPN-90 and NMN on tumor immune microenvironment. […] (C) T cells were co-cultured with LLC cells, and treated with LZFPN-90 (100 nM), and NMN (1 mM) to detect the cell proliferation by T cell killing assay. Data are presented as mean ± SEM; *P < 0.05, **P < 0.01, ***P < 0.001 compared with control. n.s., not significant. (1 picture or pasted object on this page, not shown here)

Structure (SMILES): CCN(CC)CCCOc1cccc(-c2cccc3c2CCN3C(=O)c2ncc(CNC(=NC#N)Nc3ccncc3)s2)c1 [LZFPN-90]
- effect on NAD+ content in tumor tissues [1]: reduced NAD^+ content in tumor tissues
- NAD+ in 20 mg tissue ([1]; tumor tissue): 221.603 and 139.494 and 234.768
- Relative inhibition (敏感性) [2]: 0.24
- Relative inhibition (敏感性) [3]: 0.85
- Relative inhibition (敏感性) [4]: 0.17
- Colony formation relative to Ctrl ([5]; LZ90-H (80 nM)): 0.24
- Colony formation relative to Ctrl ([5]; LZ90-L (20 nM), Ctrl = 1): 0.68
- Colony formation relative to Ctrl ([5]; LZ90-M (40 nM)): 0.53
- inhibition at 0.1 µM [6]: 26.8%
